In ChEMBL document CHEMBL3769323, “Design, synthesis and bioevaluation of tacrine hybrids with cinnamate and cinnamylidene acetate derivatives as potential anti-Alzheimer drugs” (Medchemcomm, 2015):
Activity calls are given as the source filed them. No cut-off for these calls is given here.

How the values were obtained:
SH-SY5Y [1] = experiment: Cytotoxicity against human SH-SY5Y cells assessed as cell viability at 1.5 to 5 uM after 25 hrs by MTT assay; format: cell-based
Acetylcholinesterase = Acetylcholinesterase (Electrophorus electricus, UniProt O42275); experiment: Inhibition of electric eel AChE preincubated for 15 mins followed by addition of acetylcholine iodide as substrate by Ellman's assay
[2] = Antioxidant activity assessed as DPPH radical scavenging activity after 30 mins; format: physicochemical
[3] = Cytotoxicity against ovarian cancer cells (unknown origin); format: cell-based; conditions: Cancer cell lines
[4] = Antioxidant activity assessed as DPPH radical scavenging activity at 1 mM after 30 mins; format: physicochemical; conditions: 0.5 h, 1000 µM
[5] = molecular target: Amyloid-beta precursor protein (Homo sapiens) (UniProt P05067); experiment: Inhibition of Amyloid beta (1 to 42) (unknown origin) self-induced aggregation at 80 uM for 24 hrs by Thioflavin T-based fluorometric assay
SH-SY5Y [6] = experiment: Neuroprotective activity against human SH-SY5Y cells assessed as reduction of H2O2-induced oxidative stress at 2.5 uM preincubated with compound for 1 hr followed by H2O2 addition for 24 hrs by MTT reduction assay; format: functional, cell-based
SH-SY5Y [7] = experiment: Cytotoxicity against human SH-SY5Y cells assessed as cell viability at 1.5 uM after 25 hrs by MTT assay relative to control; format: cell-based
SH-SY5Y [8] = experiment: Neuroprotective activity against human SH-SY5Y cells assessed as reduction of Amyloid beta 42-induced cytotoxicity at 2.5 uM preincubated with compound for 1 hr followed by Amyloid beta 42 peptide addition for 24 hrs by MTT reduction assay; format: functional, cell-based
SH-SY5Y [9] = experiment: Cytotoxicity against human SH-SY5Y cells assessed as cell viability at 2.5 uM after 25 hrs by MTT assay relative to control; format: cell-based
SH-SY5Y [10] = experiment: Neuroprotective activity against human SH-SY5Y cells assessed as reduction of H2O2-induced oxidative stress at 5 uM preincubated with compound for 1 hr followed by H2O2 addition for 24 hrs by MTT reduction assay; format: functional, cell-based

Sequence of Amyloid-beta precursor protein (Homo sapiens) (P05067 whole entry): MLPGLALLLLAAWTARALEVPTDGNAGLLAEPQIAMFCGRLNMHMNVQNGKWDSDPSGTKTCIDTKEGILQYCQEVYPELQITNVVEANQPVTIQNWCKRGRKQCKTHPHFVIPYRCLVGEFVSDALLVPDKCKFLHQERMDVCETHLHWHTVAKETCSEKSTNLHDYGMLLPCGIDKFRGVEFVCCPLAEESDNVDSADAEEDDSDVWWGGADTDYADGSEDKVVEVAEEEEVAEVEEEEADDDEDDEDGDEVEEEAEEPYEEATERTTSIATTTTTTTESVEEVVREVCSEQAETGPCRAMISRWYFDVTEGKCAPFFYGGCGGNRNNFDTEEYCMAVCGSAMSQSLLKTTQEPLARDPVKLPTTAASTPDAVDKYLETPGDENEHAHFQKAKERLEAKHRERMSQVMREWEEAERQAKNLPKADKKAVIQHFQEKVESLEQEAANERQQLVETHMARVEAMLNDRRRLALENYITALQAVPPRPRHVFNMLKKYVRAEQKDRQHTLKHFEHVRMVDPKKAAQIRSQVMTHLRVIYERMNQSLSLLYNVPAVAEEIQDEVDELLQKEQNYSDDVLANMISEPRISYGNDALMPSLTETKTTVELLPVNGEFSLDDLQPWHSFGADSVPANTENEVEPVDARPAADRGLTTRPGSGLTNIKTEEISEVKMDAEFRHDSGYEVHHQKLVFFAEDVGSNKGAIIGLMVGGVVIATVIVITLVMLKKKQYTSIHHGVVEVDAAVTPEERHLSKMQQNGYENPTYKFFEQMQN
Sequence of Acetylcholinesterase (O42275 whole entry): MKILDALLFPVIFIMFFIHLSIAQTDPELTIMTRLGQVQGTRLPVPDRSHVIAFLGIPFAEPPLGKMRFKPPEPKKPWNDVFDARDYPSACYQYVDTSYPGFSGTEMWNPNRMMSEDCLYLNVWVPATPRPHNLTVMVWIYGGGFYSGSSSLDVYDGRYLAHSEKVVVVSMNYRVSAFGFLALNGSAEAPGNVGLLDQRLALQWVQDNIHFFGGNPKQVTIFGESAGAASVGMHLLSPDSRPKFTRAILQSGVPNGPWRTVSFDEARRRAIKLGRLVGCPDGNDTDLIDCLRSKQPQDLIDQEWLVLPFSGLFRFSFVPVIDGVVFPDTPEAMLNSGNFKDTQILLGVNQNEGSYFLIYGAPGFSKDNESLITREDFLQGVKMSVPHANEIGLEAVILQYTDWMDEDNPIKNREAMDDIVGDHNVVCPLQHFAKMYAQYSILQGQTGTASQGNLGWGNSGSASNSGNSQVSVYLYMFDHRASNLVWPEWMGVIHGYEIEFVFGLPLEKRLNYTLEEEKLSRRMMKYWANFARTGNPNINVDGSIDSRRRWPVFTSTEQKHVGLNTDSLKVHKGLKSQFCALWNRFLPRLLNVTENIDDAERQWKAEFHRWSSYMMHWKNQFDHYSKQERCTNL

SMILES	Activity (SH-SY5Y [1])	IC50 (Acetylcholinesterase) [nM]	Activity [4] [%]	further results
O=C(/C=C/C=C/c1ccc(O)c(O)c1)NCCCNc1c2c(nc3ccccc13)CCCC2	Non-toxic	480	–	EC50 [2]: 9100 nM
O=C(/C=C/c1ccc2c(c1)OCO2)NCCCNc1c2c(nc3ccccc13)CCCC2	Toxic	130	15.4	IC50 [3]: 5820 nM; inhibition [5]: 8.27%
COc1ccc(/C=C/C(=O)NCCCNc2c3c(nc4ccccc24)CCCC3)cc1OC	–	90	16.8	IC50 [3]: 19500 nM; Activity (SH-SY5Y [6]): Active; inhibition [5]: 56.5%
O=C(/C=C/C=C/c1ccc2c(c1)OCO2)NCCNc1c2c(nc3ccccc13)CCCC2	Toxic	300	26.2	Activity (SH-SY5Y [7]): Toxic
O=C(/C=C/C=C/c1ccc2c(c1)OCO2)NCCCNc1c2c(nc3ccccc13)CCCC2	Toxic	130	20.8	IC50 [3]: 2500 nM; inhibition [5]: 72.2%
O=C(/C=C/c1ccccc1)NCCNc1c2c(nc3ccccc13)CCCC2	Toxic	770	7.9	–
COc1ccc(/C=C/C(=O)NCCCCNc2c3c(nc4ccccc24)CCCC3)cc1OC	–	390	16.1	–
O=C(/C=C/c1ccccc1)NCCCCNc1c2c(nc3ccccc13)CCCC2	–	850	22.5	Activity (SH-SY5Y [8]): Active
O=C(/C=C/C=C/c1ccccc1)NCCCCNc1c2c(nc3ccccc13)CCCC2	–	620	23	Activity (SH-SY5Y [7]): Toxic
O=C(/C=C/c1ccc(O)c(O)c1)NCCNc1c2c(nc3ccccc13)CCCC2	Toxic	840	–	EC50 [2]: 12300 nM
O=C(/C=C/c1ccc2c(c1)OCO2)NCCCCNc1c2c(nc3ccccc13)CCCC2	Toxic	730	18.6	–
O=C(/C=C/C=C/c1ccccc1)NCCNc1c2c(nc3ccccc13)CCCC2	Toxic	320	15.6	Activity (SH-SY5Y [7]): Toxic
O=C(/C=C/c1ccccc1)NCCCNc1c2c(nc3ccccc13)CCCC2	Toxic	380	16.3	Activity (SH-SY5Y [9]): Toxic
O=C(/C=C/c1ccc2c(c1)OCO2)NCCNc1c2c(nc3ccccc13)CCCC2	Toxic	180	12.2	inhibition [5]: 30.9%
COc1ccc(/C=C/C(=O)NCCNc2c3c(nc4ccccc24)CCCC3)cc1OC	–	90	8.8	IC50 [3]: 10400 nM; Activity (SH-SY5Y [6]): Active; Activity (SH-SY5Y [8]): Active; inhibition [5]: 19.6%
O=C(/C=C/C=C/c1ccccc1)NCCCNc1c2c(nc3ccccc13)CCCC2	Toxic	290	16.9	–
O=C(/C=C/C=C/c1ccc(O)c(O)c1)NCCNc1c2c(nc3ccccc13)CCCC2	Non-toxic	1090	–	Activity (SH-SY5Y [10]): Active; EC50 [2]: 9500 nM
O=C(/C=C/c1ccc(O)c(O)c1)NCCCNc1c2c(nc3ccccc13)CCCC2	Toxic	980	–	Activity (SH-SY5Y [10]): Active; EC50 [2]: 11300 nM
